Experimental data from patent publication EP0726263A2, “Herbicidal (1,3,4)oxadiazoles and thiadiazoles” (American Cyanamid Company, priority 1995, dated 1996).

Experiments:
Assay type in all cases: in vivo
Abutilon theophrasti [1] = test: Herbicidal activity, preemergence test; details: pre; sprayed onto soil, 800 g of active material per hectare; evaluated 3 weeks after treatment
Summary of the method: (§1)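 First, test compound in acetone containing 0.4% Triton X-155 is diluted with water. Next, it is sprayed at 800 g/ha (900 L/ha) onto freshly seeded loam (pre) or onto seedlings (post). Finally, plants are scored 0-9 visually after 3 or 2 weeks, respectively.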

Alopecurus myosuroides [2] = test: Herbicidal activity, preemergence test; details: pre; sprayed onto soil, 800 g of active material per hectare; evaluated 3 weeks after treatment
Summary of the method: as §1

Galium aparine [3] = test: Herbicidal activity, preemergence test; details: pre; sprayed onto soil, 800 g of active material per hectare; evaluated 3 weeks after treatment
Summary of the method: as §1

Glycine max [4] = test: Herbicidal activity, preemergence test; details: pre; sprayed onto soil, 800 g of active material per hectare; evaluated 3 weeks after treatment
Summary of the method: as §1

Gossypium hirsutum [5] = test: Herbicidal activity, preemergence test; details: pre; sprayed onto soil, 800 g of active material per hectare; evaluated 3 weeks after treatment
Summary of the method: as §1

Helianthus annuus [6] = test: Herbicidal activity, preemergence test; details: pre; sprayed onto soil, 800 g of active material per hectare; evaluated 3 weeks after treatment
Summary of the method: as §1

Hordeum vulgare [7] = test: Herbicidal activity, preemergence test; details: pre; sprayed onto soil, 800 g of active material per hectare; evaluated 3 weeks after treatment
Summary of the method: as §1

Ipomoea hederacea [8] = test: Herbicidal activity, preemergence test; details: pre; sprayed onto soil, 800 g of active material per hectare; evaluated 3 weeks after treatment
Summary of the method: as §1

Lamium purpureum [9] = test: Herbicidal activity, preemergence test; details: pre; sprayed onto soil, 800 g of active material per hectare; evaluated 3 weeks after treatment
Summary of the method: as §1

Matricaria inodora [10] = test: Herbicidal activity, preemergence test; details: pre; sprayed onto soil, 800 g of active material per hectare; evaluated 3 weeks after treatment
Summary of the method: as §1

Papaver rhoeas [11] = test: Herbicidal activity, preemergence test; details: pre; sprayed onto soil, 800 g of active material per hectare; evaluated 3 weeks after treatment
Summary of the method: as §1

Setaria viridis [12] = test: Herbicidal activity, preemergence test; details: pre; sprayed onto soil, 800 g of active material per hectare; evaluated 3 weeks after treatment
Summary of the method: as §1

Triticum aestivum [13] = test: Herbicidal activity, preemergence test; details: pre; sprayed onto soil, 800 g of active material per hectare; evaluated 3 weeks after treatment
Summary of the method: as §1

Veronica persica [14] = test: Herbicidal activity, preemergence test; details: pre; sprayed onto soil, 800 g of active material per hectare; evaluated 3 weeks after treatment
Summary of the method: as §1

Viola arvensis [15] = test: Herbicidal activity, preemergence test; details: pre; sprayed onto soil, 800 g of active material per hectare; evaluated 3 weeks after treatment
Summary of the method: as §1

Zea mays [16] = test: Herbicidal activity, preemergence test; details: pre; sprayed onto soil, 800 g of active material per hectare; evaluated 3 weeks after treatment
Summary of the method: as §1

Abutilon theophrasti [17] = test: Herbicidal activity, postemergence test; details: post; sprayed onto seedling plants, 800 g of active material per hectare; evaluated 2 weeks after treatment
Summary of the method: as §1

Alopecurus myosuroides [18] = test: Herbicidal activity, postemergence test; details: post; sprayed onto seedling plants, 800 g of active material per hectare; evaluated 2 weeks after treatment
Summary of the method: as §1

Galium aparine [19] = test: Herbicidal activity, postemergence test; details: post; sprayed onto seedling plants, 800 g of active material per hectare; evaluated 2 weeks after treatment
Summary of the method: as §1

Glycine max [20] = test: Herbicidal activity, postemergence test; details: post; sprayed onto seedling plants, 800 g of active material per hectare; evaluated 2 weeks after treatment
Summary of the method: as §1

Gossypium hirsutum [21] = test: Herbicidal activity, postemergence test; details: post; sprayed onto seedling plants, 800 g of active material per hectare; evaluated 2 weeks after treatment
Summary of the method: as §1

Helianthus annuus [22] = test: Herbicidal activity, postemergence test; details: post; sprayed onto seedling plants, 800 g of active material per hectare; evaluated 2 weeks after treatment
Summary of the method: as §1

Hordeum vulgare [23] = test: Herbicidal activity, postemergence test; details: post; sprayed onto seedling plants, 800 g of active material per hectare; evaluated 2 weeks after treatment
Summary of the method: as §1

Ipomoea hederacea [24] = test: Herbicidal activity, postemergence test; details: post; sprayed onto seedling plants, 800 g of active material per hectare; evaluated 2 weeks after treatment
Summary of the method: as §1

Lamium purpureum [25] = test: Herbicidal activity, postemergence test; details: post; sprayed onto seedling plants, 800 g of active material per hectare; evaluated 2 weeks after treatment
Summary of the method: as §1

Matricaria inodora [26] = test: Herbicidal activity, postemergence test; details: post; sprayed onto seedling plants, 800 g of active material per hectare; evaluated 2 weeks after treatment
Summary of the method: as §1

Papaver rhoeas [27] = test: Herbicidal activity, postemergence test; details: post; sprayed onto seedling plants, 800 g of active material per hectare; evaluated 2 weeks after treatment
Summary of the method: as §1

Setaria viridis [28] = test: Herbicidal activity, postemergence test; details: post; sprayed onto seedling plants, 800 g of active material per hectare; evaluated 2 weeks after treatment
Summary of the method: as §1

Triticum aestivum [29] = test: Herbicidal activity, postemergence test; details: post; sprayed onto seedling plants, 800 g of active material per hectare; evaluated 2 weeks after treatment
Summary of the method: as §1

Veronica persica [30] = test: Herbicidal activity, postemergence test; details: post; sprayed onto seedling plants, 800 g of active material per hectare; evaluated 2 weeks after treatment
Summary of the method: as §1

Viola arvensis [31] = test: Herbicidal activity, postemergence test; details: post; sprayed onto seedling plants, 800 g of active material per hectare; evaluated 2 weeks after treatment
Summary of the method: as §1

Zea mays [32] = test: Herbicidal activity, postemergence test; details: post; sprayed onto seedling plants, 800 g of active material per hectare; evaluated 2 weeks after treatment
Summary of the method: as §1

Amaranthus retroflexus [33] = test: Herbicidal activity, preemergence test; details: pre; sprayed onto soil, 800 g of active material per hectare; evaluated 3 weeks after treatment
Summary of the method: as §1

Ambrosia artemisifolia [34] = test: Herbicidal activity, preemergence test; details: pre; sprayed onto soil, 800 g of active material per hectare; evaluated 3 weeks after treatment
Summary of the method: as §1

Chenopodium album [35] = test: Herbicidal activity, preemergence test; details: pre; sprayed onto soil, 800 g of active material per hectare; evaluated 3 weeks after treatment
Summary of the method: as §1

Stellaria media [36] = test: Herbicidal activity, preemergence test; details: pre; sprayed onto soil, 800 g of active material per hectare; evaluated 3 weeks after treatment
Summary of the method: as §1

Amaranthus retroflexus [37] = test: Herbicidal activity, postemergence test; details: post; sprayed onto seedling plants, 800 g of active material per hectare; evaluated 2 weeks after treatment
Summary of the method: as §1

Ambrosia artemisifolia [38] = test: Herbicidal activity, postemergence test; details: post; sprayed onto seedling plants, 800 g of active material per hectare; evaluated 2 weeks after treatment
Summary of the method: as §1

Chenopodium album [39] = test: Herbicidal activity, postemergence test; details: post; sprayed onto seedling plants, 800 g of active material per hectare; evaluated 2 weeks after treatment
Summary of the method: as §1

Stellaria media [40] = test: Herbicidal activity, postemergence test; details: post; sprayed onto seedling plants, 800 g of active material per hectare; evaluated 2 weeks after treatment
Summary of the method: as §1

| SMILES | ABUTH control rating (0-9) (Abutilon theophrasti [1]) | ALOMY control rating (0-9) (Alopecurus myosuroides [2]) | GALAP control rating (0-9) (Galium aparine [3]) | GLXMA control rating (0-9) (Glycine max [4]) | GOSHI control rating (0-9) (Gossypium hirsutum [5]) | HORVW control rating (0-9) (Hordeum vulgare [7]) | IPOHE control rating (0-9) (Ipomoea hederacea [8]) | LAMPU control rating (0-9) (Lamium purpureum [9]) | MATIN control rating (0-9) (Matricaria inodora [10]) | PAPRH control rating (0-9) (Papaver rhoeas [11]) | SETVI control rating (0-9) (Setaria viridis [12]) | TRZAW control rating (0-9) (Triticum aestivum [13]) | VERPE control rating (0-9) (Veronica persica [14]) | ZEAMX control rating (0-9) (Zea mays [16]) | ABUTH control rating (0-9) (Abutilon theophrasti [17]) | ALOMY control rating (0-9) (Alopecurus myosuroides [18]) | GALAP control rating (0-9) (Galium aparine [19]) | GLXMA control rating (0-9) (Glycine max [20]) | GOSHI control rating (0-9) (Gossypium hirsutum [21]) | HORVW control rating (0-9) (Hordeum vulgare [23]) | further results |
| --- | --- | --- | --- | --- | --- | --- | --- | --- | --- | --- | --- | --- | --- | --- | --- | --- | --- | --- | --- | --- | --- |
| C[C@H](NC(=O)c1nnc(N(C)C)o1)c1ccccc1 [Example 6] | 0 (no effect) | 0 (no effect) | 0 (no effect) | 0 (no effect) | 0 (no effect) | 0 (no effect) | 0 (no effect) | 0 (no effect) | 0 (no effect) | 0 (no effect) | 0 (no effect) | 0 (no effect) | 0 (no effect) | 0 (no effect) | 2 (slight effect) | 2 (slight effect) | 2 (slight effect) | 0 (no effect) | 2 (slight effect) | 2 (slight effect) | HELAN control rating (0-9) (Helianthus annuus [6]): 0 (no effect); VIOAR control rating (0-9) (Viola arvensis [15]): 2 (slight effect); HELAN control rating (0-9) (Helianthus annuus [22]): 2 (slight effect); IPOHE control rating (0-9) (Ipomoea hederacea [24]): 2 (slight effect); LAMPU control rating (0-9) (Lamium purpureum [25]): 1 (trace effect); MATIN control rating (0-9) (Matricaria inodora [26]): 0 (no effect); PAPRH control rating (0-9) (Papaver rhoeas [27]): 0 (no effect); SETVI control rating (0-9) (Setaria viridis [28]): 0 (no effect); TRZAW control rating (0-9) (Triticum aestivum [29]): 1 (trace effect); VERPE control rating (0-9) (Veronica persica [30]): 0 (no effect); VIOAR control rating (0-9) (Viola arvensis [31]): 0 (no effect); ZEAMX control rating (0-9) (Zea mays [32]): 0 (no effect) |
| COc1ccc(-c2nnc(C(=O)N[C@@H](C)c3ccccc3)o2)cc1 [Example 19] | 1 (trace effect) | 0 (no effect) | 0 (no effect) | 0 (no effect) | 0 (no effect) | 0 (no effect) | 0 (no effect) | 8 (approaching complete kill) | 7 (good herbicidal effect) | 9 (complete kill) | 7 (good herbicidal effect) | 0 (no effect) | 9 (complete kill) | 0 (no effect) | 9 (complete kill) | 3 (moderate effect) | 5 (definite injury) | 4 (injury) | 9 (complete kill) | 3 (moderate effect) | AMARE control rating (0-9) (Amaranthus retroflexus [33]): 9 (complete kill); AMBEL control rating (0-9) (Ambrosia artemisifolia [34]): 0 (no effect); CHEAL control rating (0-9) (Chenopodium album [35]): 9 (complete kill); STEME control rating (0-9) (Stellaria media [36]): 6 (herbicidal effect); AMARE control rating (0-9) (Amaranthus retroflexus [37]): 8 (approaching complete kill); AMBEL control rating (0-9) (Ambrosia artemisifolia [38]): 7 (good herbicidal effect); CHEAL control rating (0-9) (Chenopodium album [39]): 8 (approaching complete kill); IPOHE control rating (0-9) (Ipomoea hederacea [24]): 6 (herbicidal effect); LAMPU control rating (0-9) (Lamium purpureum [25]): 8 (approaching complete kill); MATIN control rating (0-9) (Matricaria inodora [26]): 6 (herbicidal effect); PAPRH control rating (0-9) (Papaver rhoeas [27]): 7 (good herbicidal effect); SETVI control rating (0-9) (Setaria viridis [28]): 9 (complete kill); STEME control rating (0-9) (Stellaria media [40]): 8 (approaching complete kill); TRZAW control rating (0-9) (Triticum aestivum [29]): 2 (slight effect); VERPE control rating (0-9) (Veronica persica [30]): 9 (complete kill); ZEAMX control rating (0-9) (Zea mays [32]): 3 (moderate effect) |
| C[C@H](NC(=O)c1nnc(-c2ccccc2Cl)o1)c1ccccc1 [Example 21] | 0 (no effect) | 0 (no effect) | 0 (no effect) | 0 (no effect) | 0 (no effect) | 0 (no effect) | 1 (trace effect) | 5 (definite injury) | 6 (herbicidal effect) | 9 (complete kill) | 1 (trace effect) | 0 (no effect) | 9 (complete kill) | 0 (no effect) | 5 (definite injury) | 0 (no effect) | 4 (injury) | 2 (slight effect) | 8 (approaching complete kill) | 1 (trace effect) | AMARE control rating (0-9) (Amaranthus retroflexus [33]): 3 (moderate effect); AMBEL control rating (0-9) (Ambrosia artemisifolia [34]): 0 (no effect); CHEAL control rating (0-9) (Chenopodium album [35]): 2 (slight effect); STEME control rating (0-9) (Stellaria media [36]): 5 (definite injury); AMARE control rating (0-9) (Amaranthus retroflexus [37]): 8 (approaching complete kill); AMBEL control rating (0-9) (Ambrosia artemisifolia [38]): 6 (herbicidal effect); CHEAL control rating (0-9) (Chenopodium album [39]): 7 (good herbicidal effect); IPOHE control rating (0-9) (Ipomoea hederacea [24]): 4 (injury); LAMPU control rating (0-9) (Lamium purpureum [25]): 6 (herbicidal effect); MATIN control rating (0-9) (Matricaria inodora [26]): 4 (injury); PAPRH control rating (0-9) (Papaver rhoeas [27]): 5 (definite injury); SETVI control rating (0-9) (Setaria viridis [28]): 6 (herbicidal effect); STEME control rating (0-9) (Stellaria media [40]): 9 (complete kill); TRZAW control rating (0-9) (Triticum aestivum [29]): 2 (slight effect); VERPE control rating (0-9) (Veronica persica [30]): 7 (good herbicidal effect); ZEAMX control rating (0-9) (Zea mays [32]): 2 (slight effect) |
